Results published in ChEMBL document CHEMBL5346973 (J Med Chem, 2023).
Where a SMILES comes first, the peptide text is derived from it.

Experiments:
[1] = target: Nicotinic acetylcholine receptor alpha9/alpha10 (Rattus norvegicus, UniProt P43144+Q9JLB5); assay: Antagonist activity at rat alpha9alpha10 nACh receptor expressed in Xenopus oocyte assessed as inhibition of acetylcholine-induced response at -70 mV holding potential by voltage-clamp based electrophysiological assay; format: cell-based
[2] = target: Neuronal acetylcholine receptor subunit alpha-7 (Rattus norvegicus, UniProt Q05941); assay: Antagonist activity at rat alpha7 nACh receptor expressed in Xenopus oocyte assessed as inhibition of acetylcholine-induced response at -70 mV holding potential by voltage-clamp based electrophysiological assay; format: cell-based
Neuronal acetylcholine receptor subunit alpha-7, sequence (Q05941 whole entry): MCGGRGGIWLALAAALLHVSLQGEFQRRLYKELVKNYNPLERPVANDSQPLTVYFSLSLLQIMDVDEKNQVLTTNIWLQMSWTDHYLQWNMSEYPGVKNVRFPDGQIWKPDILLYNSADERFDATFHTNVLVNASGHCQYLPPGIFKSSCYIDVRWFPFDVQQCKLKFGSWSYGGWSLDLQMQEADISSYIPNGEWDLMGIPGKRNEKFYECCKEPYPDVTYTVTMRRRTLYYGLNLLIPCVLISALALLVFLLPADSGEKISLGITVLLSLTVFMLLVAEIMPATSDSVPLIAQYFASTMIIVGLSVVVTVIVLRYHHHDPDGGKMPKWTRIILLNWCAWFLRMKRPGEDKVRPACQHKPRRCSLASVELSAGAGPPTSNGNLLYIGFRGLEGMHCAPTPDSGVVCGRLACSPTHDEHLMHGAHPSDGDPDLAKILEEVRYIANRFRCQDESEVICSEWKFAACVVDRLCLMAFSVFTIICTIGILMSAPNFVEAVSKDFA

Nicotinic acetylcholine receptor alpha9/alpha10, sequence (P43144 whole entry): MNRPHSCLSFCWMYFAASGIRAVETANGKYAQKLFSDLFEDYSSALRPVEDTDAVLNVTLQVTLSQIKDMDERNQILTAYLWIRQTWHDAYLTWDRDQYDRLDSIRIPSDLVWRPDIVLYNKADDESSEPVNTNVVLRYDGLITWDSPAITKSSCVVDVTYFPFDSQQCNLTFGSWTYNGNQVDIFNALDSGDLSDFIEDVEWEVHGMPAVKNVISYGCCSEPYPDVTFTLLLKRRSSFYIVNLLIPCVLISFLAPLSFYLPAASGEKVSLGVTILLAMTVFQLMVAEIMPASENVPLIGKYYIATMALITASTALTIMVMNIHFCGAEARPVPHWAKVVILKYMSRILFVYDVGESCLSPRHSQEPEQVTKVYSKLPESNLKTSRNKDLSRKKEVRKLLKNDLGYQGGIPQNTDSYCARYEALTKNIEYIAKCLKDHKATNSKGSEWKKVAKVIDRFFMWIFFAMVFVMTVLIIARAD
Nicotinic acetylcholine receptor alpha9/alpha10, sequence (Q9JLB5 whole entry): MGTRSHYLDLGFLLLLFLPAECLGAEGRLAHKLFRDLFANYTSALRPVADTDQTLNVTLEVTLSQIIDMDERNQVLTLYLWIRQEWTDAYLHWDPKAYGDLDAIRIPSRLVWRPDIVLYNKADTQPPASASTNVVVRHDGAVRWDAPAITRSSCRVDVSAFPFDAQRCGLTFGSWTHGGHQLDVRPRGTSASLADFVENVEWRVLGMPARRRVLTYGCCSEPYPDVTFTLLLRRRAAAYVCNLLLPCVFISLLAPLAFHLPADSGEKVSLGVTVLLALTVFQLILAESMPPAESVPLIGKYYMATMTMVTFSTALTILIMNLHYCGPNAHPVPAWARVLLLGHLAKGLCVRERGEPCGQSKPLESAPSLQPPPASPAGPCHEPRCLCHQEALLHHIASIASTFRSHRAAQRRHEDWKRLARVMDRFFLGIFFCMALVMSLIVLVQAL

Compound	IC50 [1]	IC50 [2]
CC[C@H](C)[C@@H]1NC(=O)[C@H](CCCNC(=N)N)NC(=O)[C@H](C)NC(=O)[C@@H]2CSSC[C@H](NC(=O)[C@H](Cc3ccc(O)cc3)NC(=O)[C@H](CCCNC(=N)N)NC(=O)CNC(=O)[C@H](CO)NC(=O)[C@H](CO)NC(=O)[C@H](CCCNC(=N)N)NC(=O)[C@@H](NC(=O)[C@@H](N)[C@@H](C)O)CSSC[C@@H](C(=O)N[C@H](C(=O)O)C(C)C)NC(=O)[C@H](C)NC(=O)[C@H](CC(=O)O)NC(=O)[C@H]([C@@H](C)O)NC1=O)C(=O)N[C@@H](CCCNC(=N)N)C(=O)N[C@@H](CO)C(=O)N1CCC[C@H]1C(=O)N[C@@H](Cc1ccc(O)cc1)C(=O)N[C@@H](CC(=O)O)C(=O)N[C@@H](CCCNC(=N)N)C(=O)N[C@@H](CCCNC(=N)N)C(=O)N[C@@H](CCCNC(=N)N)C(=O)N[C@@H](CCCNC(=N)N)C(=O)N[C@@H](Cc1ccc(O)cc1)C(=O)N2	37 nM	> 10000 nM
CC[C@H](C)[C@@H]1NC(=O)[C@H](CCCNC(=N)N)NC(=O)[C@H](CCCNC(=N)N)NC(=O)[C@@H]2CSSC[C@H](NC(=O)[C@H](Cc3ccc(O)cc3)NC(=O)[C@H](CCCNC(=N)N)NC(=O)CNC(=O)[C@H](CO)NC(=O)[C@H](CO)NC(=O)[C@H](CCCNC(=N)N)NC(=O)[C@@H](NC(=O)[C@@H](N)[C@@H](C)O)CSSC[C@@H](C(=O)N[C@H](C(=O)O)C(C)C)NC(=O)[C@H](C)NC(=O)[C@H](CC(=O)O)NC(=O)[C@H]([C@@H](C)O)NC1=O)C(=O)N[C@@H](C)C(=O)N[C@@H](CO)C(=O)N1CCC[C@H]1C(=O)N[C@@H](Cc1ccc(O)cc1)C(=O)N[C@@H](CC(=O)O)C(=O)N[C@@H](CCCNC(=N)N)C(=O)N[C@@H](CCCNC(=N)N)C(=O)N[C@@H](CCCNC(=N)N)C(=O)N[C@@H](CCCNC(=N)N)C(=O)N[C@@H](Cc1ccc(O)cc1)C(=O)N2 (HELM PEPTIDE1{T.C.R.S.S.G.R.Y.C.A.S.P.Y.D.R.R.R.R.Y.C.R.R.I.T.D.A.C.V}$PEPTIDE1,PEPTIDE1,2:R3-27:R3|PEPTIDE1,PEPTIDE1,9:R3-20:R3$$$V2.0)	35 nM	8760 nM
CC[C@H](C)[C@@H]1NC(=O)[C@H](CCCNC(=N)N)NC(=O)[C@H](CCCNC(=N)N)NC(=O)[C@@H]2CSSC[C@H](NC(=O)[C@H](Cc3ccc(O)cc3)NC(=O)[C@H](CCCNC(=N)N)NC(=O)CNC(=O)[C@H](CO)NC(=O)[C@H](C)NC(=O)[C@H](CCCNC(=N)N)NC(=O)[C@@H](NC(=O)[C@@H](N)[C@@H](C)O)CSSC[C@@H](C(=O)N[C@H](C(=O)O)C(C)C)NC(=O)[C@H](C)NC(=O)[C@H](CC(=O)O)NC(=O)[C@H]([C@@H](C)O)NC1=O)C(=O)N[C@@H](CCCNC(=N)N)C(=O)N[C@@H](CO)C(=O)N1CCC[C@H]1C(=O)N[C@@H](Cc1ccc(O)cc1)C(=O)N[C@@H](CC(=O)O)C(=O)N[C@@H](CCCNC(=N)N)C(=O)N[C@@H](CCCNC(=N)N)C(=O)N[C@@H](CCCNC(=N)N)C(=O)N[C@@H](CCCNC(=N)N)C(=O)N[C@@H](Cc1ccc(O)cc1)C(=O)N2	17 nM	4100 nM
CC[C@H](C)[C@@H]1NC(=O)[C@H](CCCNC(=N)N)NC(=O)[C@H](CCCNC(=N)N)NC(=O)[C@@H]2CSSC[C@H](NC(=O)[C@H](Cc3ccc(O)cc3)NC(=O)[C@H](CCCNC(=N)N)NC(=O)CNC(=O)[C@H](CO)NC(=O)[C@H](CO)NC(=O)[C@H](CCCNC(=N)N)NC(=O)[C@@H](NC(=O)[C@@H](N)[C@@H](C)O)CSSC[C@@H](C(=O)N[C@H](C(=O)O)C(C)C)NC(=O)[C@H](C)NC(=O)[C@H](CC(=O)O)NC(=O)[C@H]([C@@H](C)O)NC1=O)C(=O)N[C@@H](CCCNC(=N)N)C(=O)N[C@@H](C)C(=O)N1CCC[C@H]1C(=O)N[C@@H](Cc1ccc(O)cc1)C(=O)N[C@@H](CC(=O)O)C(=O)N[C@@H](CCCNC(=N)N)C(=O)N[C@@H](CCCNC(=N)N)C(=O)N[C@@H](CCCNC(=N)N)C(=O)N[C@@H](CCCNC(=N)N)C(=O)N[C@@H](Cc1ccc(O)cc1)C(=O)N2 (HELM PEPTIDE1{T.C.R.S.S.G.R.Y.C.R.A.P.Y.D.R.R.R.R.Y.C.R.R.I.T.D.A.C.V}$PEPTIDE1,PEPTIDE1,2:R3-27:R3|PEPTIDE1,PEPTIDE1,9:R3-20:R3$$$V2.0)	10 nM	5600 nM
CC[C@H](C)[C@@H]1NC(=O)[C@H](CCCNC(=N)N)NC(=O)[C@H](CCCNC(=N)N)NC(=O)[C@@H]2CSSC[C@H](NC(=O)[C@H](Cc3ccc(O)cc3)NC(=O)[C@H](C)NC(=O)CNC(=O)[C@H](CO)NC(=O)[C@H](CO)NC(=O)[C@H](CCCNC(=N)N)NC(=O)[C@@H](NC(=O)[C@@H](N)[C@@H](C)O)CSSC[C@@H](C(=O)N[C@H](C(=O)O)C(C)C)NC(=O)[C@H](C)NC(=O)[C@H](CC(=O)O)NC(=O)[C@H]([C@@H](C)O)NC1=O)C(=O)N[C@@H](CCCNC(=N)N)C(=O)N[C@@H](CO)C(=O)N1CCC[C@H]1C(=O)N[C@@H](Cc1ccc(O)cc1)C(=O)N[C@@H](CC(=O)O)C(=O)N[C@@H](CCCNC(=N)N)C(=O)N[C@@H](CCCNC(=N)N)C(=O)N[C@@H](CCCNC(=N)N)C(=O)N[C@@H](CCCNC(=N)N)C(=O)N[C@@H](Cc1ccc(O)cc1)C(=O)N2 (HELM PEPTIDE1{T.C.R.S.S.G.A.Y.C.R.S.P.Y.D.R.R.R.R.Y.C.R.R.I.T.D.A.C.V}$PEPTIDE1,PEPTIDE1,2:R3-27:R3|PEPTIDE1,PEPTIDE1,9:R3-20:R3$$$V2.0)	48 nM	> 10000 nM
CC[C@H](C)[C@@H]1NC(=O)[C@H](CCCNC(=N)N)NC(=O)[C@H](CCCNC(=N)N)NC(=O)[C@@H]2CSSC[C@H](NC(=O)[C@H](Cc3ccc(O)cc3)NC(=O)[C@H](CCCNC(=N)N)NC(=O)CNC(=O)[C@H](CO)NC(=O)[C@H](CO)NC(=O)[C@H](CCCNC(=N)N)NC(=O)[C@@H](NC(=O)[C@@H](N)[C@@H](C)O)CSSC[C@@H](C(=O)N[C@H](C(=O)O)C(C)C)NC(=O)[C@H](C)NC(=O)[C@H](CC(=O)O)NC(=O)[C@H]([C@@H](C)O)NC1=O)C(=O)N[C@@H](CCCNC(=N)N)C(=O)N[C@@H](CO)C(=O)N1CCC[C@H]1C(=O)N[C@@H](C)C(=O)N[C@@H](CC(=O)O)C(=O)N[C@@H](CCCNC(=N)N)C(=O)N[C@@H](CCCNC(=N)N)C(=O)N[C@@H](CCCNC(=N)N)C(=O)N[C@@H](CCCNC(=N)N)C(=O)N[C@@H](Cc1ccc(O)cc1)C(=O)N2 (HELM PEPTIDE1{T.C.R.S.S.G.R.Y.C.R.S.P.A.D.R.R.R.R.Y.C.R.R.I.T.D.A.C.V}$PEPTIDE1,PEPTIDE1,2:R3-27:R3|PEPTIDE1,PEPTIDE1,9:R3-20:R3$$$V2.0)	20 nM	4680 nM
CC[C@H](C)[C@@H]1NC(=O)[C@H](CCCNC(=N)N)NC(=O)[C@H](CCCNC(=N)N)NC(=O)[C@@H](NC(=O)[C@H](Cc2ccc(O)cc2)NC(=O)[C@H](CCCNC(=N)N)NC(=O)[C@H](CCCNC(=N)N)NC(=O)[C@H](CCCNC(=N)N)NC(=O)[C@H](CCCNC(=N)N)NC(=O)[C@H](CC(=O)O)NC(=O)[C@H](Cc2ccc(O)cc2)NC(=O)[C@H](C)NC(=O)[C@H](CO)NC(=O)[C@H](CCCNC(=N)N)NC(=O)[C@@H]2CSSC[C@H](NC(=O)[C@@H](N)[C@@H](C)O)C(=O)N[C@H](CCCNC(=N)N)C(=O)N[C@@H](CO)C(=O)N[C@@H](CO)C(=O)NCC(=O)N[C@@H](CCCNC(=N)N)C(=O)N[C@@H](Cc3ccc(O)cc3)C(=O)N2)CSSC[C@@H](C(=O)N[C@H](C(=O)O)C(C)C)NC(=O)[C@H](C)NC(=O)[C@H](CC(=O)O)NC(=O)[C@H]([C@@H](C)O)NC1=O	16 nM	2250 nM
CC[C@H](C)[C@@H]1NC(=O)[C@H](CCCNC(=N)N)NC(=O)[C@H](CCCNC(=N)N)NC(=O)[C@@H]2CSSC[C@H](NC(=O)[C@H](Cc3ccc(O)cc3)NC(=O)[C@H](CCCNC(=N)N)NC(=O)CNC(=O)[C@H](CO)NC(=O)[C@H](CO)NC(=O)[C@H](CCCNC(=N)N)NC(=O)[C@@H](NC(=O)[C@H](C)N)CSSC[C@@H](C(=O)N[C@H](C(=O)O)C(C)C)NC(=O)[C@H](C)NC(=O)[C@H](C)NC(=O)[C@H]([C@@H](C)O)NC1=O)C(=O)N[C@@H](CCCNC(=N)N)C(=O)N[C@@H](CO)C(=O)N1CCC[C@H]1C(=O)N[C@@H](Cc1ccc(O)cc1)C(=O)N[C@@H](CC(=O)O)C(=O)N[C@@H](CCCNC(=N)N)C(=O)N[C@@H](CCCNC(=N)N)C(=O)N[C@@H](CCCNC(=N)N)C(=O)N[C@@H](CCCNC(=N)N)C(=O)N[C@@H](Cc1ccc(O)cc1)C(=O)N2	27 nM	5890 nM
CC(C)[C@H](NC(=O)[C@@H]1CSSC[C@H](NC(=O)[C@H](Cc2ccc(O)cc2)NC(=O)[C@H](CCCNC(=N)N)NC(=O)[C@H](CCCNC(=N)N)NC(=O)[C@H](CCCNC(=N)N)NC(=O)[C@H](CCCNC(=N)N)NC(=O)[C@H](CC(=O)O)NC(=O)[C@H](Cc2ccc(O)cc2)NC(=O)[C@@H]2CCCN2C(=O)[C@H](CO)NC(=O)[C@H](CCCNC(=N)N)NC(=O)[C@@H]2CSSC[C@H](NC(=O)[C@@H](N)[C@@H](C)O)C(=O)N[C@@H](CCCNC(=N)N)C(=O)N[C@@H](CO)C(=O)N[C@@H](CO)C(=O)NCC(=O)N[C@@H](CCCNC(=N)N)C(=O)N[C@@H](Cc3ccc(O)cc3)C(=O)N2)C(=O)N[C@@H](CCCNC(=N)N)C(=O)N[C@@H](CCCNC(=N)N)C(=O)N[C@@H](C)C(=O)N[C@@H]([C@@H](C)O)C(=O)N[C@@H](CC(=O)O)C(=O)N[C@@H](C)C(=O)N1)C(=O)O	16 nM	640 nM
CC[C@H](C)[C@@H]1NC(=O)[C@H](CCCNC(=N)N)NC(=O)[C@H](CCCNC(=N)N)NC(=O)[C@@H]2CSSC[C@H](NC(=O)[C@H](Cc3ccc(O)cc3)NC(=O)[C@H](CCCNC(=N)N)NC(=O)CNC(=O)[C@H](CO)NC(=O)[C@H](CO)NC(=O)[C@H](CCCNC(=N)N)NC(=O)[C@@H](NC(=O)[C@@H](N)[C@@H](C)O)CSSC[C@@H](C(=O)N[C@H](C(=O)O)C(C)C)NC(=O)[C@H](C)NC(=O)[C@H](CC(=O)O)NC(=O)[C@H]([C@@H](C)O)NC1=O)C(=O)N[C@@H](CCCNC(=N)N)C(=O)N[C@@H](CO)C(=O)N1CCC[C@H]1C(=O)N[C@@H](Cc1ccc(O)cc1)C(=O)N[C@@H](C)C(=O)N[C@@H](CCCNC(=N)N)C(=O)N[C@@H](CCCNC(=N)N)C(=O)N[C@@H](CCCNC(=N)N)C(=O)N[C@@H](CCCNC(=N)N)C(=O)N[C@@H](Cc1ccc(O)cc1)C(=O)N2 (HELM PEPTIDE1{T.C.R.S.S.G.R.Y.C.R.S.P.Y.A.R.R.R.R.Y.C.R.R.I.T.D.A.C.V}$PEPTIDE1,PEPTIDE1,2:R3-27:R3|PEPTIDE1,PEPTIDE1,9:R3-20:R3$$$V2.0)	4.7 nM	7640 nM
